Results reported in ChEMBL document CHEMBL1201862, “PubChem BioAssay data set” (2004).
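Growth conditions: 96-well plates. Treatment: test compound, 48 hours, 5 concentrations. Analysis: linear interpolation between bracketing concentrations; unreached endpoints set to highest concentration. Here, GI50 denotes the concentration required for 50% inhibition of growth.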 Calls of active or inactive are those of the source. Cut-off read from the data, not from the text of the source: active = GI50 up to about 1.1 µM and inactive = higher. Peptide text beside a SMILES is read from it. * marks the point of attachment. Cbz = O=C(OCc1ccccc1)*; OBn = c1ccc(CO*)cc1

Columns and labels:
Assay in all cases: NCI-60 cell line screen, 48 h
786-0 = system: 786-0
A549 = system: A549
BT-549 = system: BT-549
CAKI-1 = system: CAKI-1
CCRF-CEM = system: CCRF-CEM
EKVX = system: EKVX
HOP-92 = system: HOP-92
HT-29 = system: HT-29
KM12 = system: KM12
M14 = system: M14
MOLT-4 = system: MOLT-4
NCI-H23 = system: NCI-H23
NCI-H460 = system: NCI-H460
NCI-H522 = system: NCI-H522
OVCAR-8 = system: OVCAR-8
PC-3 = system: PC-3
SF-268 = system: SF-268
TK-10 = system: TK-10
UACC-257 = system: UACC-257
UO-31 = system: UO-31

Structure (SMILES) | GI50 (786-0) | GI50 (A549) | GI50 (BT-549) | GI50 (CAKI-1) | GI50 (CCRF-CEM) | GI50 (EKVX) | GI50 (HOP-92) | GI50 (HT-29) | GI50 (KM12) | GI50 (M14) | GI50 (MOLT-4) | GI50 (NCI-H23) | GI50 (NCI-H460) | GI50 (NCI-H522) | GI50 (OVCAR-8) | GI50 (PC-3) | GI50 (SF-268) | GI50 (TK-10) | GI50 (UACC-257) | GI50 (UO-31)
CC(=O)Oc1ccc2c(c1)[nH]c1c3ccc(OC(C)=O)cc3oc(=O)c21 | 48 µM (inactive) | 56.9 µM (inactive) | 23.9 µM (inactive) | 52.4 µM (inactive) | 19.3 µM (inactive) | 34.7 µM (inactive) | 61.1 µM (inactive) | 34.2 µM (inactive) | 29.1 µM (inactive) | 30.5 µM (inactive) | 14.2 µM (inactive) | 36.1 µM (inactive) | 22.6 µM (inactive) | 25.5 µM (inactive) | 35.4 µM (inactive) | 24.5 µM (inactive) | 26.9 µM (inactive) | 49.9 µM (inactive) | 43.2 µM (inactive) | 27.8 µM (inactive)
N#Cc1ccccc1-c1nc2c3c(c(N)ccc3n1)C(=O)c1ccccc1-2 | 33 µM (inactive) | 71.6 µM (inactive) | > 100 µM (inactive) | 8.3 µM (inactive) | 18.9 µM (inactive) | 30.3 µM (inactive) | > 100 µM (inactive) | 43.4 µM (inactive) | 11.5 µM (inactive) | 23.1 µM (inactive) | 32.3 µM (inactive) | 88.7 µM (inactive) | > 100 µM (inactive) | 32 µM (inactive) | 33.5 µM (inactive) | 23.7 µM (inactive) | 51.5 µM (inactive) | 21.4 µM (inactive) | > 100 µM (inactive) | 8.85 µM (inactive)
COC[C@@H](C[C@H]1O[C@@](O)([C@H](O)[C@@H]2C[C@H](OC)[C@@H](O)CC/C=C(C)/C=C/[C@@H](O[C@@H]3O[C@@H](C)[C@H](OC)[C@@H](O)[C@@H]3O)[C@H](C)/C=C(C)/C=C(C)/C=C(\C)C(=O)O2)[C@H](C)[C@@H](O)[C@H]1C)O[C@H]1C[C@](C)(O)[C@@H](O[C@H]2C[C@@H](OC)[C@H](O)[C@@H](C)O2)C(C)O1 (some centres not stated) | > 100 µM (inactive) | 1.32 µM (inactive) | > 92.3 µM (inactive) | > 100 µM (inactive) | – | 0.119 µM (active) | > 90.2 µM (inactive) | > 100 µM (inactive) | > 66.2 µM (inactive) | > 100 µM (inactive) | 2.44 µM (inactive) | 0.0532 µM (active) | > 61 µM (inactive) | 0.0685 µM (active) | 1.44 µM (inactive) | 0.0447 µM (active) | > 40.8 µM (inactive) | > 100 µM (inactive) | 0.0374 µM (active) | > 100 µM (inactive)
CC(C)(C)N1C(=O)c2ccccc2C1(O)C(F)(F)F (configuration not stated) | > 100 µM (inactive) | > 100 µM (inactive) | > 100 µM (inactive) | > 100 µM (inactive) | > 100 µM (inactive) | 64 µM (inactive) | > 100 µM (inactive) | > 100 µM (inactive) | > 100 µM (inactive) | > 100 µM (inactive) | – | > 100 µM (inactive) | > 100 µM (inactive) | 64.4 µM (inactive) | > 100 µM (inactive) | 60.1 µM (inactive) | > 100 µM (inactive) | > 100 µM (inactive) | > 100 µM (inactive) | > 100 µM (inactive)
C[N+](C)(C)/C=N\c1cccc2nsnc12 | > 100 µM (inactive) | > 100 µM (inactive) | > 100 µM (inactive) | > 100 µM (inactive) | > 100 µM (inactive) | > 100 µM (inactive) | > 100 µM (inactive) | > 100 µM (inactive) | – | > 100 µM (inactive) | > 100 µM (inactive) | > 100 µM (inactive) | – | > 100 µM (inactive) | > 100 µM (inactive) | > 100 µM (inactive) | > 100 µM (inactive) | > 100 µM (inactive) | > 100 µM (inactive) | > 100 µM (inactive)
COC(=O)CNC(=O)C(C)NC(=O)C(CC(=O)OCc1ccccc1)NC(=O)OCc1ccccc1 (stereo not drawn) (Cbz-Asp(OBn)-Ala-Gly-OMe; configuration not given here) | > 100 µM (inactive) | 39.5 µM (inactive) | 37.8 µM (inactive) | 79.8 µM (inactive) | – | – | 66.5 µM (inactive) | 65.5 µM (inactive) | 73.6 µM (inactive) | > 100 µM (inactive) | 13.7 µM (inactive) | 36.6 µM (inactive) | 50.7 µM (inactive) | 34.3 µM (inactive) | 81.8 µM (inactive) | 24 µM (inactive) | – | 20.5 µM (inactive) | 32.4 µM (inactive) | 19.1 µM (inactive)
NCC(O)CSCc1ccc(Cl)cc1 (configuration not stated) | > 100 µM (inactive) | > 100 µM (inactive) | > 100 µM (inactive) | > 100 µM (inactive) | > 100 µM (inactive) | – | > 100 µM (inactive) | > 100 µM (inactive) | > 100 µM (inactive) | > 100 µM (inactive) | > 100 µM (inactive) | > 100 µM (inactive) | > 100 µM (inactive) | > 100 µM (inactive) | > 100 µM (inactive) | > 100 µM (inactive) | > 100 µM (inactive) | > 100 µM (inactive) | > 100 µM (inactive) | > 100 µM (inactive)
